{"source": "ChEMBL document CHEMBL1141587", "about": "“Substituted oxazolidinones as novel NPC1L1 ligands for the inhibition of cholesterol absorption” (Bioorg Med Chem Lett, 2008)", "key": {"[1]": {"biological_target": "NPC1-like intracellular cholesterol transporter 1 (Rattus norvegicus, UniProt Q6T3U3)", "sequence (Q6T3U3 21-1331 limits assumed)": "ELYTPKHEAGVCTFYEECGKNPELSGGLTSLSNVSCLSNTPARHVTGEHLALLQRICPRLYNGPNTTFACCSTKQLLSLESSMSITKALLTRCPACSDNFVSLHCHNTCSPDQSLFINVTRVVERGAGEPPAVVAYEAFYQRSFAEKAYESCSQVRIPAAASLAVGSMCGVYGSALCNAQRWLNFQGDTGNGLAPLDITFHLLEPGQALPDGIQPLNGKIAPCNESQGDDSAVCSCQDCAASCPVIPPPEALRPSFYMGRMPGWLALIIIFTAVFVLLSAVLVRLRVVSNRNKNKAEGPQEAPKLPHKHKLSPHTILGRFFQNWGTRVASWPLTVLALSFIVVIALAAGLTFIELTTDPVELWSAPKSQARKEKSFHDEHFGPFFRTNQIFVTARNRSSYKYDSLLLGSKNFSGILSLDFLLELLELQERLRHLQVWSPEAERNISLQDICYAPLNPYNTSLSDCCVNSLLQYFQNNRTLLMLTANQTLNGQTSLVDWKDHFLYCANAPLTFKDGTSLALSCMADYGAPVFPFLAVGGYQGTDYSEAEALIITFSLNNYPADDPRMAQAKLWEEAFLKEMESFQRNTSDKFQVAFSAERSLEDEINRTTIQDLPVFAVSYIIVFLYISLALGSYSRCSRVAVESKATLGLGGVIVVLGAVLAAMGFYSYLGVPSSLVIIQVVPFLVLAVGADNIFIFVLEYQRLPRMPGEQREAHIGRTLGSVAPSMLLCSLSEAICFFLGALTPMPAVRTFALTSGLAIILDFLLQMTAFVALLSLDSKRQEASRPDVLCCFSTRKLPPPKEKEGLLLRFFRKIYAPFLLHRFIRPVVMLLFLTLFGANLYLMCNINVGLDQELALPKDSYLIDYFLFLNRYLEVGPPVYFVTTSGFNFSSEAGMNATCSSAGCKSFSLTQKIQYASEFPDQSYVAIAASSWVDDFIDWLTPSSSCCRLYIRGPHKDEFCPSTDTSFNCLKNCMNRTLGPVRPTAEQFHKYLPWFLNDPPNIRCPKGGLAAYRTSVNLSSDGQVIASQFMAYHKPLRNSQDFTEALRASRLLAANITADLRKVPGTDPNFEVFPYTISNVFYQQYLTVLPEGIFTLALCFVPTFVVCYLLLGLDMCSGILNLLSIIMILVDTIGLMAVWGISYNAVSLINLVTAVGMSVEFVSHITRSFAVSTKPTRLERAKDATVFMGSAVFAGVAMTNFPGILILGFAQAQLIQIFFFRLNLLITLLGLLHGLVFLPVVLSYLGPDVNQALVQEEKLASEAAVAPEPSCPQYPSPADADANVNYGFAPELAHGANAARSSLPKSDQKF", "assay": "Displacement of [3H]ezetimibe-glucuronide from NPC1L1 in Sprague-Dawley rat brush border membrane"}, "Hamster": {"system": "Hamster", "assay": "Inhibition of cholesterol absorption in chow fed hamster at 3 mg/kg, po", "format": "functional", "details": "Cricetinae"}, "[2]": {"assay": "Half life in rat hepatocytes", "format": "ADME, cell-based, Liver, Hepatocyte"}, "[3]": {"assay": "Metabolic stability assessed as half life in rat liver microsomes", "format": "ADME, Microsome"}}, "note": "pKi: −log10 of the molar value."}
{"smiles": "COc1ccc(O)c([C@@H]2[C@@H]([C@H](O)CCc3ccccc3)OC(=O)N2c2cccc(F)c2)c1", "values": [{"measurement": "pKi", "setting": "[1]", "value": "< 4.30"}]}
{"smiles": "O=C(O)[C@H]1O[C@@H](Oc2ccc([C@@H]3[C@@H]([C@H](O)CCc4ccccc4)OC(=O)N3c3ccc(F)cc3)cc2)[C@H](O)[C@@H](O)[C@@H]1O", "values": [{"measurement": "pKi", "setting": "[1]", "value": "< 4.30"}]}
{"smiles": "COc1cccc(CN(C)C(=O)[C@H]2OC(=O)N(c3ccc(F)cc3)[C@@H]2c2ccc(O)cc2)c1", "values": [{"measurement": "pKi", "setting": "[1]", "value": 4.96}]}
{"smiles": "O=C1O[C@H]([C@H](O)CCc2ccccc2)[C@@H](c2cccc(F)c2O)N1c1cccc(F)c1", "values": [{"measurement": "pKi", "setting": "[1]", "value": "< 4.30"}, {"measurement": "inhibition in vivo at 3 mg/kg", "setting": "Hamster", "value": 0, "unit": "%"}]}
{"smiles": "O=C1O[C@H]([C@H](O)CCc2ccccc2)[C@@H](c2ccc(O)cc2)N1c1ccccc1F", "values": [{"measurement": "pKi", "setting": "[1]", "value": "< 4.30"}]}
{"smiles": "O=C1O[C@H]([C@H](O)CCc2ccccc2)[C@@H](c2cc(F)ccc2O)N1c1cccc(F)c1", "values": [{"measurement": "pKi", "setting": "[1]", "value": 4.74}, {"measurement": "inhibition in vivo at 3 mg/kg", "setting": "Hamster", "value": 0, "unit": "%"}]}
{"smiles": "Cc1ccc([C@@H]2[C@@H]([C@H](O)CCc3ccccc3)OC(=O)N2c2cccc(F)c2)c(O)c1", "values": [{"measurement": "pKi", "setting": "[1]", "value": 4.80}]}
{"smiles": "COc1ccc([C@@H]2[C@@H]([C@H](O)CCc3ccccc3)OC(=O)N2c2ccc(F)cc2)c(O)c1", "values": [{"measurement": "pKi", "setting": "[1]", "value": 5.32}, {"measurement": "half-life", "setting": "[2]", "value": 249, "unit": "min"}]}
{"smiles": "COc1ccc([C@@H]2[C@@H]([C@H](O)CCc3ccccc3)OC(=O)N2c2ccc(F)cc2)c(OC)c1", "values": [{"measurement": "pKi", "setting": "[1]", "value": "< 4.30"}]}
{"smiles": "O=C1O[C@H]([C@H](O)CCc2ccccc2)[C@@H](c2ccc(O)cc2O)N1c1ccc(F)cc1", "values": [{"measurement": "pKi", "setting": "[1]", "value": 5.04}, {"measurement": "half-life", "setting": "[2]", "value": 136, "unit": "min"}]}
{"smiles": "O=C1O[C@H](CC[C@H](O)c2ccc(F)cc2)[C@@H](c2ccc(O)cc2)N1c1ccc(F)cc1", "values": [{"measurement": "pKi", "setting": "[1]", "value": 5.00}]}
{"smiles": "O=C1O[C@H]([C@H](O)CCc2ccccc2)[C@@H](c2ccccc2O)N1c1ccc(F)cc1", "values": [{"measurement": "pKi", "setting": "[1]", "value": 4.92}, {"measurement": "inhibition in vivo at 3 mg/kg", "setting": "Hamster", "value": 0, "unit": "%"}]}
{"smiles": "COc1ccc([C@@H]2[C@@H](C(=O)N3CCc4ccccc4C3)OC(=O)N2c2cccc(F)c2)c(O)c1", "values": [{"measurement": "pKi", "setting": "[1]", "value": 5.44}]}
{"smiles": "O=C(NCc1ccc(F)cc1)[C@H]1OC(=O)N(c2ccc(F)cc2)[C@@H]1c1ccc(O)cc1", "values": [{"measurement": "pKi", "setting": "[1]", "value": 4.52}]}
{"smiles": "COc1ccc([C@@H]2[C@@H]([C@H](O)CCc3ccccc3)OC(=O)N2c2cccc(F)c2)c(O)c1", "values": [{"measurement": "pKi", "setting": "[1]", "value": 5.64}]}
{"smiles": "O=C1O[C@H]([C@H](O)CCc2ccccc2)[C@@H](c2ccc(O)cc2)N1c1cccc(F)c1", "values": [{"measurement": "pKi", "setting": "[1]", "value": 4.96}, {"measurement": "half-life", "setting": "[2]", "value": 71, "unit": "min"}]}
{"smiles": "COc1ccc([C@@H]2[C@@H](C(=O)N(C)Cc3ccc(F)cc3)OC(=O)N2c2cccc(F)c2)c(O)c1", "values": [{"measurement": "pKi", "setting": "[1]", "value": 5.85}, {"measurement": "inhibition in vivo at 3 mg/kg", "setting": "Hamster", "value": 0, "unit": "%"}]}
{"smiles": "O=C1O[C@H]([C@H](O)COc2ccc(F)cc2)[C@@H](c2ccc(O)cc2)N1c1ccc(F)cc1", "values": [{"measurement": "pKi", "setting": "[1]", "value": 4.55}, {"measurement": "half-life", "setting": "[2]", "value": 67, "unit": "min"}]}
{"smiles": "CN(Cc1ccc(F)cc1)C(=O)[C@H]1OC(=O)N(c2ccc(F)cc2)[C@@H]1c1ccc(O)cc1", "values": [{"measurement": "pKi", "setting": "[1]", "value": 4.85}]}
{"smiles": "COc1cccc(OC[C@@H](O)[C@H]2OC(=O)N(c3ccc(F)cc3)[C@@H]2c2ccc(O)cc2)c1", "values": [{"measurement": "pKi", "setting": "[1]", "value": 4.82}]}
{"smiles": "COc1ccc(OC[C@@H](O)[C@H]2OC(=O)N(c3ccc(F)cc3)[C@@H]2c2ccc(O)cc2)cc1", "values": [{"measurement": "pKi", "setting": "[1]", "value": "< 4.30"}]}
{"smiles": "O=C(O)[C@H]1O[C@@H](Oc2ccc([C@@H]3[C@@H](CC[C@H](O)c4ccc(F)cc4)C(=O)N3c3ccc(F)cc3)cc2)[C@H](O)[C@@H](O)[C@@H]1O", "values": [{"measurement": "half-life", "setting": "[3]", "value": "> 60", "unit": "min"}, {"measurement": "pKi", "setting": "[1]", "value": 6.74}]}
{"smiles": "O=C(NC[C@H]1OC(=O)N(c2ccc(F)cc2)[C@@H]1c1ccc(O)cc1)c1ccc(F)cc1", "values": [{"measurement": "pKi", "setting": "[1]", "value": "< 4.30"}]}
{"smiles": "COc1cccc([C@@H]2[C@@H]([C@H](O)CCc3ccccc3)OC(=O)N2c2cccc(F)c2)c1O", "values": [{"measurement": "pKi", "setting": "[1]", "value": 5.24}]}
{"smiles": "O=C1O[C@H]([C@H](O)COc2ccc(Cl)cc2)[C@@H](c2ccc(O)cc2)N1c1ccc(F)cc1", "values": [{"measurement": "pKi", "setting": "[1]", "value": 4.31}]}
{"smiles": "O=C1O[C@H]([C@H](O)CNc2ccc(F)cc2)[C@@H](c2ccc(O)cc2)N1c1ccc(F)cc1", "values": [{"measurement": "pKi", "setting": "[1]", "value": 4.72}]}
{"smiles": "COc1ccc([C@@H]2[C@@H]([C@H](O)COc3ccc(F)cc3)OC(=O)N2c2cccc(F)c2)c(O)c1", "values": [{"measurement": "pKi", "setting": "[1]", "value": 4.55}, {"measurement": "inhibition in vivo at 3 mg/kg", "setting": "Hamster", "value": 0, "unit": "%"}]}
{"smiles": "O=C1O[C@H]([C@H](O)CCc2ccccc2)[C@@H](c2ccc(F)cc2O)N1c1cccc(F)c1", "values": [{"measurement": "pKi", "setting": "[1]", "value": 4.72}, {"measurement": "inhibition in vivo at 3 mg/kg", "setting": "Hamster", "value": 0, "unit": "%"}]}
{"smiles": "COc1ccc([C@@H]2[C@@H](CCCc3ccccc3)OC(=O)N2c2ccc(OC)cc2)cc1", "values": [{"measurement": "pKi", "setting": "[1]", "value": "< 4.30"}]}
{"smiles": "COc1cccc(OC[C@@H](O)[C@H]2OC(=O)N(c3cccc(F)c3)[C@@H]2c2ccc(OC)cc2O)c1", "values": [{"measurement": "pKi", "setting": "[1]", "value": 5.06}]}
{"smiles": "O=C1O[C@H]([C@H](O)CCc2ccccc2)[C@@H](c2cccc(O)c2)N1c1ccc(F)cc1", "values": [{"measurement": "pKi", "setting": "[1]", "value": 4.48}]}
{"smiles": "O=C1O[C@H]([C@H](O)CCc2ccccc2)[C@@H](c2ccc(O)cc2)N1c1ccc(F)cc1", "values": [{"measurement": "pKi", "setting": "[1]", "value": "< 4.30"}]}
{"smiles": "O=C1[C@H](CC[C@H](O)c2ccc(F)cc2)[C@@H](c2ccc(O)cc2)N1c1ccc(F)cc1", "note": "[EZETIMIBE]", "values": [{"measurement": "half-life", "setting": "[3]", "value": 9.5, "unit": "min"}, {"measurement": "pKi", "setting": "[1]", "value": 6.70}, {"measurement": "half-life", "setting": "[2]", "value": 43, "unit": "min"}]}
